Like-named read-outs stand apart in the source and are kept apart here.
Tested on: primary neuronal cultures from embryonic rat brains
Test: Rat oscillation assay (FLIPR, neuronal calcium oscillations)
Assay type: cell-based
Protocol: This assay is a functional phenotypic assay designed to mimic epileptic seizures using primary neuronal cultures from embryonic rat brains, which form a functional neuronal network that generate synchronized intracellular calcium concentration oscillations when cultured at high density in 384-well plate. The epileptic phenotype is induced by incubating the neurons in magnesium-free assay buffer, that results in increased probability of NMDA receptor activation, leading to an increased frequency and amplitude of intracellular calcium oscillations. Once neurons are incubated with the calcium indicator dye Fluo-8 AM (Tebu-bio), neuronal calcium oscillations can be monitored in real time using FLIPR® Tetra (fluorometric plate reader, Molecular Devices). With these recordings, the effect of anti-epileptic drugs can be quantified. The anti-epileptic effect of compounds, which activate directly or indirectly the Kv7 channels can be modulated by the Kv7 channel blocker XE-991. The assay was performed as described previously (Pacico N, Mingorance-Le Meur A. New In Vitro Phenotypic Assay for Epilepsy: Fluorescent Measurement of Synchronized Neuronal Calcium Oscillations. PLoS ONE 9(1) 2014) with modifications described hereafter.
Animal care followed standard procedures in accordance with swiss institutional guidelines. Dissociated neuronal cultures were obtained from cerebral cortices of embryonic Wistar rats at embryonic stage E18 (Charles River). The uterine horns were removed by caesarian surgery from deeply anesthetized rats (Isofurane) and sacrificed by decapitation. The embryos were decapitated by closing forceps. The brains were isolated and dissected one by one in ice-cold PBS (Life Technologies) under optical control using a binocular. Meninges, olfactory bulbs, and basal ganglia were removed. Cortical hemispheres (still including the hippocampus) were cut in small pieces with tweezers and placed on ice in prechilled Hibernate-E medium (Life technology). The hemispheres were then incubated in 10 mL of Hibernate-E containing 15 U/mL papain (Worthington) for 25 min at 30° C. with gentle mixing every 10 min. Genomic DNA was then digested by prolonging the incubation during 10 min at 37° C. in presence of 4 U/mL rDNase I (Ambion). The obtained suspension was then centrifuged at 800 g for 5 min and the cell pellet was resuspended in 2 mL Hibernate-E and gently dissociated by pipetting up and down 10 times with a plastic Pasteur pipette resulting in a homogenous cell suspension. This suspension was immediately filtered through a 70 µm cell strainer (MACS® SmartStrainer, Miltenyi), collected in 10 mL Hibernate-E and centrifuged at 800 g for 5 min. The cell pellet was resuspended in Neurobasal medium, supplemented with 2% B-27, 0.5 mM Glutamax-I, 100 U/mL penicillin, 100 µg/mL streptomycin (Life Technologies) and diluted at the final concentration of 300′000 cells/mL. One day before plating the cells, 384-well plates were coated with 25 µL/well of 0.1 % poly-L-lysine solution (Sigma), incubated overnight at 37° C., washed two times with sterile distilled water and allowed to dry at room temperature for >2 h. The neurons were seeded at a density of 15′000 cells/well in 50 µL/well in a 384-well black, clear-bottomed plates (Corning) and subsequently maintained in an incubator at 37° C., 5% CO2 and 95% humidity for 8 to 10 days. After 3 and 7 days, 40% of media was renewed under sterile conditions.
Neurons seeded in the assay plates were washed with Hank’s balanced salt solution (HBSS) devoid of Ca^2+ and Mg^2+, supplemented with 20 mM HEPES (Life Technologies) and 2 mM CaCl2 (Sigma), pH 7.4 (hereafter called Assay buffer) using a Biotek EL406 plate washer. Neurons were loaded with 1 µM Fluo-8 AM in Assay buffer for 15 min at 37° C., 5% CO2. […]

[1] = Rattus norvegicus, 20 min, 20 min after compound addition, AUC of fluorescence, read-out: FLIPR: IC50 [nM] 20 min
[2] = Rattus norvegicus, Cortical neurone, acute phase, ratio of AUC fluorescence before and after compound addition, rat cortical neurons, Mg-free buffer, read-out: FLIPR: IC50 [nM] acute
[3] = 20 min after compound addition, AUC of fluorescence, read-out: FLIPR: IC50 [nM] 20 min
[4] = acute phase, ratio of AUC fluorescence before and after compound addition, rat cortical neurons, Mg-free buffer, read-out: FLIPR: IC50 [nM] acute

For `COCC(NC(=O)NC1CC(C(F)F)C1)c1ccnc(OCC(F)(F)F)c1` (racemic) [Example 31, (±)-1-(3-Difluoromethyl-Cyclobutyl)-3-{2-Methoxy-1-[2-(2,2,2-Trifluoro-Ethoxy)-Pyridin-4-yl]-Ethyl}-Urea], the IC50 [1] was 763 nM and the IC50 [2] was 190 nM.
`COCC(NC(=O)NC1CC(C(F)(F)F)C1)c1ccnc(OCC(F)(F)F)c1` (racemic) [Example 32, (±)-1-{2-Methoxy-1-[2-(2,2,2-Trifluoro-Ethoxy)-Pyridin-4-yl]-Ethyl}-3-(3-Trifluoromethyl-Cyclobutyl)-Urea] was tested, and the IC50 [1] was 303 nM and the IC50 [2] was 67 nM.
`CC(NC(=O)NC1CC(C(F)F)C1)c1ccnc(OC(F)F)c1` (racemic) [Example 33, (±)-1-[1-(2-Difluoromethoxy-Pyridin-4-yl)-Ethyl]-3-(3-Difluoromethyl-Cyclobutyl)-Urea] showed an IC50 [1] of 1510 nM and an IC50 [2] of 946 nM.
In the case of `Cc1nc(OCC(F)(F)F)cc(C(C)NC(=O)NC23CC(C(F)(F)F)(C2)C3)n1` (racemic) [Example 34, (±)-1-{1-[2-Methyl-6-(2,2,2-Trifluoro-Ethoxy)-Pyrimidin-4-yl]-Ethyl}-3-(3-Trifluoromethyl-Bicyclo[1.1.1]Pent-1-yl)-Urea], the IC50 [1] is reported as 291 nM and the IC50 [2] is reported as 247 nM.
With `O=C(NCc1cccc(C(F)(F)F)c1)NC1CC(C(F)(F)F)C1` (single isomer, unassigned) [Example 50, 1-(3-(Trifluoromethyl)Benzyl)-3-(3-(Trifluoromethyl)Cyclobutyl)Urea] the IC50 [3] was 82 nM and the IC50 [4] was 68 nM.
With `O=C(NCc1cccc(C(F)(F)F)c1)NC1CC(C(F)(F)F)C1` (single isomer, unassigned) [Example 51, 1-(3-(Trifluoromethyl)Benzyl)-3-(3-(Trifluoromethyl)Cyclobutyl)Urea] the IC50 [3] was 515 nM and the IC50 [4] was 363 nM.
`O=C(NCc1cccc(C(F)(F)F)c1)NC1CC(C(F)F)C1` (single isomer, unassigned) [Example 52, 1-(3-(Difluoromethyl)Cyclobutyl)-3-(3-(Trifluoromethyl)Benzyl)Urea] showed an IC50 [3] of 738 nM and an IC50 [4] of 660 nM.
`Cc1nc(OCC(F)(F)F)cc([C@H](C)NC(=O)NC23CC(C(F)(F)F)(C2)C3)n1` (single isomer, unassigned) [Example 54] showed an IC50 [1] of 216 nM and an IC50 [2] of 218 nM.
`O=C(NCc1ccnc(OCC(F)(F)F)c1)NC1CC(C(F)F)C1` (single isomer, unassigned) [Example 55, 1-(3-(Difluoromethyl)Cyclobutyl)-3-((2-(2,2,2-Trifluoroethoxy)Pyridin-4-yl)Methyl)Urea] gave an IC50 [3] of 1160 nM and an IC50 [4] of 701 nM.
`O=C(NCc1ccnc(OCC(F)(F)F)c1)NC1CC(C(F)F)C1` (single isomer, unassigned) [Example 56, 1-(3-(Difluoromethyl)Cyclobutyl)-3-((2-(2,2,2-Trifluoroethoxy)Pyridin-4-yl)Methyl)Urea] was tested, and the IC50 [3] was 547 nM and the IC50 [4] was 123 nM.
`C[C@H](NC(=O)NC1CC(C(F)F)C1)c1cccc(OC(F)(F)F)c1` (single isomer, unassigned) [Example 57] showed an IC50 [3] of 314 nM and an IC50 [4] of 146 nM.
For `C[C@H](NC(=O)NC1CC(C(F)F)C1)c1cccc(OC(F)(F)F)c1` (single isomer, unassigned) [Example 58], the IC50 [3] was 105 nM and the IC50 [4] was 51 nM.
`O=C(NCc1cccc(C(F)(F)F)c1)NC1CC(F)(F)C1` [Example 1, 1-(3,3-Difluoro-Cyclobutyl)-3-(3-Trifluoromethyl-Benzyl)-Urea] showed an IC50 [1] of 855 nM and an IC50 [2] of 486 nM.
For `CC(NC(=O)NC12CC(C1)C2)c1cccc(C(F)(F)F)c1` (centres unmarked) [Example 2, 1-Bicyclo[1.1.1]Pent-1-yl-3-[1-(3-Trifluoromethyl-Phenyl)-Ethyl]-Urea], the IC50 [1] was 466 nM and the IC50 [2] was 291 nM.
For `CC(NC(=O)NC1CC(C(F)F)C1)c1cccc(C(F)(F)F)c1` (centres unmarked) [Example 3, 1-(3-Difluoromethyl-cyclobutyl)-3-[1-(3-trifluoromethylphenyl)-ethyl]-urea], the IC50 [1] was 334 nM and the IC50 [2] was 188 nM.
For `CC(NC(=O)NC12CC(F)(C1)C2)c1cccc(C(F)(F)F)c1` (centres unmarked) [Example 4, 1-(3-Fluoro-bicyclo[1.1.1]pent-1-yl)-3-[1-(3-trifluoromethylphenyl)-ethyl]-urea], the IC50 [1] was 1060 nM and the IC50 [2] was 138 nM.
With `CC(NC(=O)NC12CC(C(F)F)(C1)C2)c1cccc(C(F)(F)F)c1` (centres unmarked) [Example 5, 1-(3-Difluoromethyl-bicyclo[1.1.1]pent-1-yl)-3-[1-(3-trifluoromethyl-phenyl)-ethyl]-urea] the IC50 [1] was 216 nM and the IC50 [2] was 296 nM.
For `CC(NC(=O)NC12CC(C1)C2)c1cccc(OC(F)(F)F)c1` (centres unmarked) [Example 6, 1-Bicyclo[1.1.1]Pent-1-yl-3-[1-(3-Trifluoromethoxy-Phenyl)-Ethyl]-Urea], the IC50 [1] was 271 nM and the IC50 [2] was 126 nM.
Work on `CC(NC(=O)NC1CC(C(F)F)C1)c1cccc(OC(F)(F)F)c1` (centres unmarked) [Example 7, 1-(3-Difluoromethyl-cyclobutyl)-3-[1-(3-trifluoromethoxyphenyl)-ethyl]-urea] yielded an IC50 [1] of 100 nM and an IC50 [2] of 63 nM.
`CC(NC(=O)NC12CC(F)(C1)C2)c1cccc(OC(F)(F)F)c1` (centres unmarked) [Example 8, 1-(3-Fluoro-bicyclo[1.1.1]pent-1-yl)-3-[1-(3-trifluoromethoxyphenyl)-ethyl]-urea] was tested, and the IC50 [1] was 331 nM and the IC50 [2] was 168 nM.
Work on `O=C(NC1CC(O)(C(F)(F)F)C1)NC(c1cccc(C(F)(F)F)c1)C(F)F` (centres unmarked) [Example 9, 1-[2,2-Difluoro-1-(3-Trifluoromethyl-Phenyl)-Ethyl]-3-(3-Hydroxy-3-Trifluoromethyl-Cyclobutyl)-Urea] yielded an IC50 [1] of 1420 nM and an IC50 [2] of 766 nM.
Work on `CC1(NC(=O)NC(c2cccc(C(F)(F)F)c2)C(F)F)CC(F)(F)C1` (centres unmarked) [Example 10, 1-(3,3-Difluoro-1-Methyl-Cyclobutyl)-3-[2,2-Difluoro-1-(3-TrifluoromethylPhenyl)-Ethyl]-Urea] yielded an IC50 [1] of 51 nM and an IC50 [2] of 57 nM.
Work on `CC(NC(=O)NC12CC(C1)C2)c1cccc(OC(F)F)c1` (centres unmarked) [Example 11, 1-Bicyclo[1.1.1]Pent-1-yl-3-[1-(3-Difluoromethoxy-Phenyl)-Ethyl]-Urea] yielded an IC50 [1] of 1360 nM and an IC50 [2] of 741 nM.
For `O=C(NC(CO)c1cccc(C(F)(F)F)c1)NC12CC(C(F)F)(C1)C2` (centres unmarked) [Example 12, 1-(3-Difluoromethyl-Bicyclo[1.1.1]Pent-1-yl)-3-[2-Hydroxy-1-(3-Trifluoromethyl-Phenyl)-Ethyl]-Urea], the IC50 [1] was 164 nM and the IC50 [2] was 154 nM.
Work on `O=C(NC(c1cccc(C(F)(F)F)c1)C(F)F)NC12CC(C(F)F)(C1)C2` (centres unmarked) [Example 13, 1-(3-Difluoromethyl-bicyclo[1.1.1]pent-1-yl)-3-[2,2-difluoro-1-(3-trifluoromethyl-phenyl)-ethyl]-urea] yielded an IC50 [1] of 41 nM and an IC50 [2] of 14 nM.
Compound `COCC(NC(=O)NC12CC(C(F)F)(C1)C2)c1cccc(C(F)(F)F)c1` (centres unmarked) [Example 14, 1-(3-Difluoromethyl-bicyclo[1.1.1]pent-1-yl)-3-[2-methoxy-1-(3-trifluoromethyl-phenyl)-ethyl]-urea] has an IC50 [1] of 79 nM and an IC50 [2] of 37 nM.
With `O=C(NCc1cccc(C(F)(F)F)c1F)NC12CC(C(F)F)(C1)C2` [Example 15, 1-(3-Difluoromethyl-bicyclo[1.1.1]pent-1-yl)-3-(2-fluoro-3-trifluoromethyl-benzyl)-urea] the IC50 [1] was 960 nM and the IC50 [2] was 619 nM.
For `O=C(NCc1cc(F)cc(C(F)(F)F)c1)NC12CC(C(F)F)(C1)C2` [Example 16, 1-(3-Difluoromethyl-bicyclo[1.1.1]pent-1-yl)-3-(3-fluoro-5-trifluoromethyl-benzyl)-urea], the IC50 [1] was 848 nM and the IC50 [2] was 716 nM.

From patent US20230303486A1, “CYCLOBUTYL-UREA DERIVATIVES” (Idorsia Pharmaceuticals Ltd, priority 2020, published 2023)
